Experimental data published in ChEMBL document CHEMBL1141477, “Synthesis and anticancer activity studies of cyclopamine derivatives” (Bioorg Med Chem Lett, 2008).
Calls of active or inactive are those of the source. The calls are words filed in the database; no cut-off is given here.

Assays:
[1] = system: A549; assay: Anticancer activity against human A549 cells at 200 uM by MTS assay; type: functional, cell-based
[2] = system: A549; assay: Anticancer activity against human A549 cells by MTS assay; type: functional, cell-based

## CC(=O)OC[C@H]1OC(n2cc(CN3C[C@@H](C)C[C@H]4O[C@]5(CC[C@@H]6C(=C5C)C[C@H]5[C@H]6CC=C6C[C@@H](O)CC[C@@]65C)[C@H](C)[C@@H]43)nn2)[C@@H](OC(C)=O)[C@@H](OC(C)=O)[C@@H]1OC(C)=O (stereo partly specified)
[1]
  Activity: inactive

## CC1=C2C[C@H]3[C@@H](CC=C4C[C@@H](O)CC[C@@]43C)[C@@H]2CC[C@]12O[C@@H]1C[C@H](C)CN[C@H]1[C@H]2C [CYCLOPAMINE]
[2]
  IC50: 49 µM

## CC(=O)N[C@@H]1[C@@H](OC(C)=O)[C@@H](OC(C)=O)[C@@H](COC(C)=O)O[C@H]1n1cc(CN2C[C@@H](C)C[C@H]3O[C@]4(CC[C@@H]5C(=C4C)C[C@H]4[C@H]5CC=C5C[C@@H](O)CC[C@@]54C)[C@H](C)[C@@H]32)nn1
[1]
  Activity: inactive

## CC(=O)OC[C@H]1O[C@@H](n2cc(CN3C[C@@H](C)C[C@H]4O[C@]5(CC[C@@H]6C(=C5C)C[C@H]5[C@H]6CC=C6C[C@@H](O)CC[C@@]65C)[C@H](C)[C@@H]43)nn2)[C@H](OC(C)=O)[C@@H](OC(C)=O)[C@@H]1O[C@@H]1O[C@H](COC(C)=O)[C@@H](OC(C)=O)[C@H](OC(C)=O)[C@H]1OC(C)=O
[1]
  Activity: inactive

## CC(=O)OC[C@H]1O[C@@H](n2cc(CN3C[C@@H](C)C[C@H]4O[C@]5(CC[C@@H]6C(=C5C)C[C@H]5[C@H]6CC=C6C[C@@H](O)CC[C@@]65C)[C@H](C)[C@@H]43)nn2)[C@H](OC(C)=O)[C@@H](OC(C)=O)[C@@H]1OC(C)=O
[2]
  IC50: 144 µM

## CC(=O)N[C@@H]1[C@@H](OC(C)=O)[C@H](OC(C)=O)[C@@H](COC(C)=O)O[C@H]1n1cc(CN2C[C@@H](C)C[C@H]3O[C@]4(CC[C@@H]5C(=C4C)C[C@H]4[C@H]5CC=C5C[C@@H](O)CC[C@@]54C)[C@H](C)[C@@H]32)nn1
[1]
  Activity: inactive

## CC(=O)OC[C@H]1O[C@@H](O[C@H]2[C@H](OC(C)=O)[C@@H](OC(C)=O)[C@H](n3cc(CN4C[C@@H](C)C[C@H]5O[C@]6(CC[C@@H]7C(=C6C)C[C@H]6[C@H]7CC=C7C[C@@H](O)CC[C@@]76C)[C@H](C)[C@@H]54)nn3)O[C@@H]2COC(C)=O)[C@H](OC(C)=O)[C@@H](OC(C)=O)[C@H]1OC(C)=O
[2]
  IC50: 183 µM

## CC(=O)O[C@@H]1[C@@H](OC(C)=O)[C@@H](OC(C)=O)C(n2cc(CN3C[C@@H](C)C[C@H]4O[C@]5(CC[C@@H]6C(=C5C)C[C@H]5[C@H]6CC=C6C[C@@H](O)CC[C@@]65C)[C@H](C)[C@@H]43)nn2)O[C@H]1C (stereo partly specified)
[2]
  IC50: 33 µM

## CC(=O)OC[C@H]1O[C@@H](n2cc(CN3C[C@@H](C)C[C@H]4O[C@]5(CC[C@@H]6C(=C5C)C[C@H]5[C@H]6CC=C6C[C@@H](O)CC[C@@]65C)[C@H](C)[C@@H]43)nn2)[C@H](OC(C)=O)[C@@H](OC(C)=O)[C@@H]1O[C@@H]1O[C@H](COC(C)=O)[C@@H](O[C@@H]2O[C@H](COC(C)=O)[C@@H](OC(C)=O)[C@H](OC(C)=O)[C@H]2OC(C)=O)[C@H](OC(C)=O)[C@H]1OC(C)=O
[2]
  IC50: 96 µM

## CC(=O)OC[C@H]1O[C@@H](n2cc(CN3C[C@@H](C)C[C@H]4O[C@]5(CC[C@@H]6C(=C5C)C[C@H]5[C@H]6CC=C6C[C@@H](O)CC[C@@]65C)[C@H](C)[C@@H]43)nn2)[C@H](OC(C)=O)[C@@H](OC(C)=O)[C@H]1OC(C)=O
[1]
  Activity: inactive

## CC(=O)O[C@@H]1[C@@H](OC(C)=O)[C@@H](n2cc(CN3C[C@@H](C)C[C@H]4O[C@]5(CC[C@@H]6C(=C5C)C[C@H]5[C@H]6CC=C6C[C@@H](O)CC[C@@]65C)[C@H](C)[C@@H]43)nn2)OC[C@H]1OC(C)=O
[1]
  Activity: inactive
